Measured values from US5728686A, “Alkylxanthine phosphonates and alkylxanthine phosphine oxides and their use as pharmaceuticals” (Hoechst Aktiengesellschaft, priority 1996, dated 1998).
Converted amounts (≈) assume the structure as drawn.

What was measured:
[1] = test system: isolated guinea pig trachea, agonist PGF2α; experiment: antagonist of PGF2α-induced contraction of isolated guinea pig trachea; type: cell-based; conditions: Cavia porcellus, 37° C., read-out: Anticontractile action (trachea), PGF2α: concentration range for dilatation corresponding to ED50 range
Description: (§1) 3. Activity as antagonist of the contraction of isolated guinea pig trachea
(§2) The compounds of the formula I are used as antagonists of the contraction of isolated guinea pig trachea. The agonists employed were PGF2α (Upjohn, Germany), calcium ionophore A23187 (Calbiochem, Bad Soden, Germany), and substance P (American Peptide Comp., USA):
Inhibition of contractions which are induced by this cyclooxygenase product is only possible by competitive antagonism at the receptor or of the subsequent signal pathway.
(§3) Preparation of the organ sections and experimental procedure:
(§4) The guinea pig is sacrificed by means of terminal laughing gas anaesthesia. The trachea is exposed along its entire length and cut into 15 individual cartilage rings. 5 rings in each case are tied together to give a chain and fixed in the organ bath under a preload of 3 g. After an equilibration time of 45 minutes, a contraction is produced using the agonist. The antagonist (test preparation) is added cumulatively on the plateau of the maximum. Evaluation is carried out in % force change relative to the contraction maximum. The experimental procedure is carried out at 37° C.; the physiological nutrient solution used is a modified Krebs-Henseleit solution through which is bubbled 95% by volume of O2, 5% by volume of CO2.
(§5) Experimental animals: albino guinea pigs (Hattersheim Animal Breeding Institute, Kastengrund, Germany), weight: 200 to 300 g, sex male or female.
(§6) Vehicle: double-distilled water, ethanol or isopropanol; administration: into the organ bath number of administration: cumulative, in SP individual doses
(§7) All numerical values are indicated in the unit μg/ml and relate to the concentration range of the tested compound of the formula I according to the invention (see example numbers in Table 1) which is necessary in order to cause a dilatation which corresponds to the ED50 range.

[2] = test system: muscle group (gastrocnemius, plantaris and soleus) of the immobilized right rear extremity; experiment: rat muscle function test: direct electrical stimulation of muscle group after 3 weeks' immobilization; type: in vivo, male Wistar rats; conditions: isotonic stimulation; oral, 1x per day for 3 weeks, as a rule 25 mg/kg; control approx. -25%; ≤-12% classified as active
Summary of the method: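 Male Wistar rats (about 300 g) had the right hindlimb immobilized in a plastic cast for 3 weeks while dosed orally once daily, usually 25 mg/kg in carboxymethylcellulose. Under pentobarbital, the gastrocnemius/plantaris/soleus group was stimulated directly: isometric force (0.5N preload, 15 min) as area-under-curve, and isotonic work (body-weight preload, 15 min) in J; results as Δ% immobilized vs contralateral muscle.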

[3] = test system: isolated guinea pig lung strips, Platelet activating factor (PAF); experiment: antagonist of PAF-induced contraction of isolated guinea pig lung strips; type: cell-based; conditions: Cavia porcellus, read-out: Anticontractile action (lung), PAF: concentration range corresponding to the IC50 value
Summary of the method: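 Guinea pig lung strips, 3 mm wide, held at 4 g preload in modified Krebs-Henseleit at 37° C, gassed 95% O2/5% CO2, contracted by PAF or LTD4. Compound given cumulatively at 1, 3, 6 and 10 μg/ml; value is the concentration in μg/ml giving IC50-level effect.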

[4] = test system: isolated guinea pig trachea, agonist substance P; experiment: antagonist of substance P-induced contraction of isolated guinea pig trachea; type: cell-based; conditions: Cavia porcellus, individual doses, 37° C., read-out: Anticontractile action (trachea), SP antagonism: concentration range for dilatation corresponding to ED50 range
Description: as §1, §2
The antagonism is possible on the one hand due to specific receptor antagonists, and on the other hand also due to inhibition of the subsequent signal pathway. Preparations which directly or indirectly increase the intracellular concentration of cyclic nucleotides in particular show spasmolytic properties here.
as §3, §4, §5, §6, §7

CCOP(=O)(CCCn1cnc2c1c(=O)[nH]c(=O)n2C)OCC [Example 2, Diethyl [4-(3-methylxanthin-7-yl)propyl]phosphonate]
EC50 [1]: > 10 µg/mL | Work (performed work, right/left difference) [2]: +5 Δ % | IC50 [3]: 3 to 6 µg/mL (≈ 8.71 to 17.4 µM) | EC50 [4]: 10 to 30 µg/mL (≈ 29 to 87.1 µM)
